These results are taken from patent US8183239B2, “Substituted piperazines and piperidines as modulators of the neuropeptide Y2 receptor” (Janssen Pharmaceutica NV, priority 2005, dated 2012).

pIC50: −log10 of the molar value.

The target in one assay is T1, Y2 receptors (Homo sapiens, UniProt P49146).
T1 construct: endogenous in cells; host or cells: KAN-Ts cells (membranes)
T1 sequence (P49146 1-381): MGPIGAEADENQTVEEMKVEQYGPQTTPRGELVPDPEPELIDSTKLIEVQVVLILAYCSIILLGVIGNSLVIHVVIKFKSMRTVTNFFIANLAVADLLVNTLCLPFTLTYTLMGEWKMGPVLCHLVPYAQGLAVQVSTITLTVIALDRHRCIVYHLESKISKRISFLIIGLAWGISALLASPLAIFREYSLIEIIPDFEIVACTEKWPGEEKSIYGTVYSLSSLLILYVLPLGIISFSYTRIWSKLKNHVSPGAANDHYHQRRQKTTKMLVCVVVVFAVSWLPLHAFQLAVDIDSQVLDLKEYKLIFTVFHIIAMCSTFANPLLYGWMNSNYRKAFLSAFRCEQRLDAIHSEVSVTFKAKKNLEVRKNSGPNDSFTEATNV
The assay can be described thus: Radioligand binding assay ([125I]PYY, KAN-Ts cell membranes). The conditions noted are these: Table 1, [125I]PYY 80 pM, average of results, read-out: IC50. In short, it runs like this: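 IC50 values are means of three to eight experiments run in duplicate, fitted sigmoidally against specific binding (defined by […]). Competition used 80 pM [^125I]PYY for 1 h at room temperature on KAN-Ts membranes carrying native Y2, with filtration and scintillation counting.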
Take `CCNC(=O)C(c1ccccc1)C1CCN(c2ccc(NC(=O)Nc3c(C)noc3C)cc2F)CC1` (stereo not drawn) [Example 10, 2-(1-{4-[3-(3,5-Dimethyl-isoxazol-4-yl)-ureido]-2-fluoro-phenyl}-piperidin-4-yl)-N-ethyl-2-phenyl-acetamide]: the pIC50 was 7.82.

Staying with this assay, now noted: Table 2, [125I]PYY 80 pM, average of results, read-out: IC50.
On to `CCC(CC)C(=O)Nc1ccc(N2CC3CC2CN3C(C(=O)N(CC)CC)c2ccccc2)c(F)c1` (stereo not drawn) [Example 272, N-{4-[5-(Diethylcarbamoyl-phenyl-methyl)-2,5-diaza-bicyclo[2.2.1]heptyl]-3-fluoro-phenyl}-2-ethyl-butyramide], for which the pIC50 is 5.40.

Consider `CCC(CC)C(=O)Nc1ccc(N2CCN(Cc3cc(F)cc(F)c3)C(C(=O)OC)C2)c(F)c1` (stereo not drawn) [Example 273, 1-(3,5-Difluoro-benzyl)-4-[4-(2-ethyl-butyrylamino)-2-fluoro-phenyl]-piperazine-2-carboxylic acid methyl ester], for which the negative-log IC50 (pIC50) is 5.15. For `CCN(CC)C(=O)C(c1ccccc1)N1CCN(c2ccc(N3CCCC3=O)cc2F)CC1` (stereo not drawn) [Example 274, N,N-Diethyl-2-{4-[2-fluoro-4-(2-oxo-pyrrolidin-1-yl)-phenyl]-piperazin-1-yl}-2-phenyl-acetamide], the pIC50 is 5.80. For the compound `CCN(CC)C(=O)C(c1ccccc1)N1CCN(c2ccc(CC(=O)N3CCCCC3c3ccccc3)cc2F)CC1` (stereo not drawn) [Example 275, N,N-Diethyl-2-(4-{2-fluoro-4-[2-oxo-2-(2-phenyl-piperidin-1-yl)-ethyl]-phenyl}-piperazin-1-yl)-2-phenyl-acetamide], the negative logarithm of the IC50 (pIC50) is 6.85. On to `CCN(CC)C(=O)C(c1ccccc1)N1CCN(c2ccc(CC(=O)N3CCCC3c3ccccc3)cc2F)CC1` (stereo not drawn) [Example 276, N,N-Diethyl-2-(4-{2-fluoro-4-[2-oxo-2-(2-phenyl-pyrrolidin-1-yl)-ethyl]-phenyl}-piperazin-1-yl)-2-phenyl-acetamide], for which the negative logarithm of the IC50 (pIC50) was 6.70. Same read-out and setting: the figure for `CCC1CCCCN1C(=O)Cc1ccc(N2CCN(C(C(=O)N(CC)CC)c3ccccc3)CC2)c(F)c1` (stereo not drawn) [Example 277, N,N-Diethyl-2-(4-{4-[2-(2-ethyl-piperidin-1-yl)-2-oxo-ethyl]-2-fluoro-phenyl}-piperazin-1-yl)-2-phenyl-acetamide] is 6.49. As to `CCN(CC)C(=O)C(c1ccccc1)N1CCN(c2ccc(CC(=O)N(C)Cc3ccco3)cc2F)CC1` (stereo not drawn) [Example 278, N,N-Diethyl-2-(4-{2-fluoro-4-[(furan-2-ylmethyl-methyl-carbamoyl)-methyl]-phenyl}-piperazin-1-yl)-2-phenyl-acetamide], the negative-log IC50 (pIC50) was 6.49. As for `CCN(CC)C(=O)C(c1ccccc1)N1CCN(c2ccc(CC(=O)N3C(C)CCC3C)cc2F)CC1` (stereo not drawn) [Example 279, 2-(4-{4-[2-(2,5-Dimethyl-pyrrolidin-1-yl)-2-oxo-ethyl]-2-fluoro-phenyl}-piperazin-1-yl)-N,N-diethyl-2-phenyl-acetamide], the pIC50 was 6.27. For `CCN(CC)C(=O)C(c1ccccc1)N1CCN(c2ccc(CC(=O)N3CCCCC3c3cccnc3)cc2F)CC1` (stereo not drawn) [Example 280, N,N-Diethyl-2-(4-{2-fluoro-4-[2-oxo-2-(3,4,5,6-tetrahydro-2H-[2,3′]bipyridinyl-1-yl)-ethyl]-phenyl}-piperazin-1-yl)-2-phenyl-acetamide], the negative logarithm of the IC50 (pIC50) was 6.24. The same measure, in the same setting: the figure for `CCC(CC)NC(=O)Cc1ccc(N2CCN(C(C(=O)N(CC)CC)c3ccccc3)CC2)c(F)c1` (stereo not drawn) [Example 281, N,N-Diethyl-2-(4-{4-[(1-ethyl-propylcarbamoyl)-methyl]-2-fluoro-phenyl}-piperazin-1-yl)-2-phenyl-acetamide] is 6.25; for `CCN(CC)C(=O)C(c1ccccc1)N1CCN(c2ccc(CC(=O)N3CCCC3C)cc2F)CC1` (stereo not drawn) [Example 282, N,N-Diethyl-2-(4-{2-fluoro-4-[2-(2-methyl-pyrrolidin-1-yl)-2-oxo-ethyl]-phenyl}-piperazin-1-yl)-2-phenyl-acetamide] it is 6.03; for `CCN(CC)C(=O)C(c1ccccc1)N1CCN(c2ccc(CC(=O)N3CCCC3)cc2F)CC1` (stereo not drawn) [Example 283, N,N-Diethyl-2-{4-[2-fluoro-4-(2-oxo-2-pyrrolidin-1-yl-ethyl)-phenyl]-piperazin-1-yl}-2-phenyl-acetamide] it is 5.92. Regarding `CCN(CC)C(=O)Cc1ccc(N2CCN(C(C(=O)N(CC)CC)c3ccccc3)CC2)c(F)c1` (stereo not drawn) [Example 284], the pIC50 is 5.82. Regarding `CCN(CC)C(=O)C(c1ccccc1)N1CCN(c2ccc(CC(=O)NCc3ccccc3)cc2F)CC1` (stereo not drawn) [Example 285], the pIC50 was 5.72. Consider `CCN(CC)C(=O)C(c1ccccc1)N1CCN(c2ccc(CC(=O)N(C)Cc3ccccc3)cc2F)CC1` (stereo not drawn) [Example 286], for which the negative-log IC50 (pIC50) is 5.68. On the same count and under the same terms, the figure for `CCN(Cc1ccccc1)C(=O)Cc1ccc(N2CCN(C(C(=O)N(CC)CC)c3ccccc3)CC2)c(F)c1` (stereo not drawn) [Example 287] is 5.66. Same read-out and setting: with `CCC(CC)NC(=O)Cc1ccc(N2CCN(C(C(=O)N3CCC(F)(F)C3)c3ccccc3)CC2)c(F)c1` (stereo not drawn) [Example 288, 2-(4-{4-[2-(3,3-Difluoro-pyrrolidin-1-yl)-2-oxo-1-phenyl-ethyl]-piperazin-1-yl}-3-fluoro-phenyl)-N-(1-ethyl-propyl)-acetamide] the figure was 5.68; with `CCN(CC)C(=O)Cc1ccc(N2CCN(C(C(=O)N3CCC(F)(F)C3)c3ccccc3)CC2)c(F)c1` (stereo not drawn) [Example 289, 2-(4-{4-[2-(3,3-Difluoro-pyrrolidin-1-yl)-2-oxo-1-phenyl-ethyl]-piperazin-1-yl}-3-fluoro-phenyl)-N,N-diethyl-acetamide], 5.46.

On to `CCNC(=O)Cc1ccc(N2CCN(C(C(=O)N(CC)CC)c3ccccc3)CC2)c(F)c1` (stereo not drawn) [Example 290, N,N-Diethyl-2-[4-(4-ethylcarbamoylmethyl-2-fluoro-phenyl)-piperazin-1-yl]-2-phenyl-acetamide], for which the pIC50 was 5.37.

In the case of `CCN(CC)C(=O)C(c1ccccc1)N1CCN(c2ccc(CC(=O)NC3CCCC3)cc2F)CC1` (stereo not drawn) [Example 291, 2-[4-(4-Cyclopentylcarbamoylmethyl-2-fluoro-phenyl)-piperazin-1-yl]-N,N-diethyl-2-phenyl-acetamide], the negative-log IC50 (pIC50) was 5.06. Regarding `CCC(CC)C(=O)Nc1ccc(N2CCN(C(C(=O)N(C)C)c3ccccc3)CC2)c(F)c1` (stereo not drawn) [Example 292, N-{4-[4-(Dimethylcarbamoyl-phenyl-methyl)-piperazin-1-yl]-3-fluoro-phenyl}-2-ethyl-butyramide], the pIC50 is 6.98.

The next assay addresses T1, Y2 receptors. The assay is described as follows: [35S]GTPγS binding assay in KAN-Ts cells (inhibition of PYY-stimulated binding). Type of assay: biochemical. As to conditions: KAN-Ts membranes. As to the method:
[^35S] GTPγS binding assay in KAN-Ts cells
Membranes from KAN-Ts cells were prepared as described above. Membranes were thawed on ice and diluted in 50 mM Tris-HCl buffer, pH 7.4 containing 10 mM MgCl2, 1 mM EDTA, 100 mM NaCl, […], 0.25% BSA. Assay mixture ([…]) were preincubated with compounds for 30 min at rt. Then, […] of [^35S]GTPγS in assay buffer was added to a final concentration of 200 pM and the assay mixtures were incubated for 1 h at rt. Reactions were terminated by rapid filtration thought GF/C filters. Filters were washed twice with ice cold 50 mM Tris-HCl, pH 7.4 containing 10 mM MgCl2. Basal [^35S]GTPγS was measured in the absence of compounds. In initial experiments, nonspecific binding was measured in the presence of […]. This nonspecific binding never exceeded 10% of basal binding and was thus not subtracted from experimental data. Stimulation of [^35S]GTPγS is presented as percentage over basal and was calculated as one hundred times the difference between stimulated and basal binding (in cpm). […] EC50 (concentration of compound at which 50% of its own maximal stimulation is obtained) and IC50 (concentration of its own maximal inhibition of PYY-stimulated [^35S]GTPγS binding is obtained) were derived from the curves. IC50 values were corrected as follows: corrected IC50 (IC50corr)=IC50/(1+[PYY]/EC50 (PYY)) and pIC50corr=−log IC50corr.
For the compound `CCNC(=O)C(c1ccccc1)C1CCN(c2ccc(NC(=O)Nc3c(C)noc3C)cc2F)CC1` (stereo not drawn) [Example 10, 2-(1-{4-[3-(3,5-Dimethyl-isoxazol-4-yl)-ureido]-2-fluoro-phenyl}-piperidin-4-yl)-N-ethyl-2-phenyl-acetamide], the “functional behaviour in [35S]GTPγS assay” value is “antagonist”.

Another assay concerns rats.
Assay: not given
The conditions noted are these: icv administration; cited from earlier work.
Take `N=C(N)NCCC[C@H](NC(=O)CC1(CC(=O)N2CCN(C3c4ccccc4NC(=O)c4ccccc43)CC2)CCCC1)C(=O)NCCn1c(=O)n(-c2ccccc2)n(-c2ccccc2)c1=O` (stereo partly drawn) [BIIE0246]: the ethanol self-administration result is listed as “dose dependently reduced ethanol self-administration”.

A word on the pIC50: it is the negative decadic logarithm of the IC50, by convention in mol/L.
